Test [1] deals with T1, Eukaryotic translation initiation factor 2-alpha kinase 3 (Homo sapiens) (UniProt Q9NZJ5).
T1 sequence (whole entry): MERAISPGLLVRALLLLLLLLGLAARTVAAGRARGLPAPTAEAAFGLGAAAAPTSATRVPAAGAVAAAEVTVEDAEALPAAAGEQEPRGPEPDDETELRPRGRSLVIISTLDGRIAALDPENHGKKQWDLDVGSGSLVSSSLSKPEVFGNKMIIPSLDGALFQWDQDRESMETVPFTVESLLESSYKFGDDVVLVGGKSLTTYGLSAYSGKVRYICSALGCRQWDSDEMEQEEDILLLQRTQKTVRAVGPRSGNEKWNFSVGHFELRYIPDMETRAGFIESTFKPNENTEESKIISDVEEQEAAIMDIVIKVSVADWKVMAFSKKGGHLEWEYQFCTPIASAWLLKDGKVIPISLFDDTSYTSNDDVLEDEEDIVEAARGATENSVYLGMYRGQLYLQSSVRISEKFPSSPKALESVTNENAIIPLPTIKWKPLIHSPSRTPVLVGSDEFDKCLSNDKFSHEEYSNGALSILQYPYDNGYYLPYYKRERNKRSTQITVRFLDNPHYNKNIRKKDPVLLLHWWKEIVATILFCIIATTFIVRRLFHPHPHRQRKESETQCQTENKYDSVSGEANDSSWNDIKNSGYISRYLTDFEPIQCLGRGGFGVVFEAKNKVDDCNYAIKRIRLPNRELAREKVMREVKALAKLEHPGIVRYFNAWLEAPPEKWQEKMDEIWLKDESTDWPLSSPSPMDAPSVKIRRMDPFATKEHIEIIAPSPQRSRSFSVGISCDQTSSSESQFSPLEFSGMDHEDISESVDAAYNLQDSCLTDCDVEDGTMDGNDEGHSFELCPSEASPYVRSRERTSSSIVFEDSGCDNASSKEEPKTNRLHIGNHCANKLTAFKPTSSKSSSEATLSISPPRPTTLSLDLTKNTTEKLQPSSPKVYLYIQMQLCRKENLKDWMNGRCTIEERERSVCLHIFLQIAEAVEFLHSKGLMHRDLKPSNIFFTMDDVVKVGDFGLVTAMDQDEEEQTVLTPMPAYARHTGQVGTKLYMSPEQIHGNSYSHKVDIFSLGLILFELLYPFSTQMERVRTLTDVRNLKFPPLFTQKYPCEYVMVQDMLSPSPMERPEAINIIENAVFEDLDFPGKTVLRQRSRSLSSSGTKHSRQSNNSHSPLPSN
Put plainly: Inhibition of PEK Lys2 labeling site in human Huh-7 cell lysate at 1 uM by KiNativ Profiling analysis relative to control. Type of test: subcellular.

The target of test [2] is Protein kinase C epsilon type (Homo sapiens) (UniProt Q02156). Put plainly: Inhibition of PRKCE (unknown origin) at 1 uM by Ambit Kinomescan binding assay relative to control; values are per cent of control.
Protein kinase C epsilon type (Homo sapiens), sequence (Q02156 whole entry): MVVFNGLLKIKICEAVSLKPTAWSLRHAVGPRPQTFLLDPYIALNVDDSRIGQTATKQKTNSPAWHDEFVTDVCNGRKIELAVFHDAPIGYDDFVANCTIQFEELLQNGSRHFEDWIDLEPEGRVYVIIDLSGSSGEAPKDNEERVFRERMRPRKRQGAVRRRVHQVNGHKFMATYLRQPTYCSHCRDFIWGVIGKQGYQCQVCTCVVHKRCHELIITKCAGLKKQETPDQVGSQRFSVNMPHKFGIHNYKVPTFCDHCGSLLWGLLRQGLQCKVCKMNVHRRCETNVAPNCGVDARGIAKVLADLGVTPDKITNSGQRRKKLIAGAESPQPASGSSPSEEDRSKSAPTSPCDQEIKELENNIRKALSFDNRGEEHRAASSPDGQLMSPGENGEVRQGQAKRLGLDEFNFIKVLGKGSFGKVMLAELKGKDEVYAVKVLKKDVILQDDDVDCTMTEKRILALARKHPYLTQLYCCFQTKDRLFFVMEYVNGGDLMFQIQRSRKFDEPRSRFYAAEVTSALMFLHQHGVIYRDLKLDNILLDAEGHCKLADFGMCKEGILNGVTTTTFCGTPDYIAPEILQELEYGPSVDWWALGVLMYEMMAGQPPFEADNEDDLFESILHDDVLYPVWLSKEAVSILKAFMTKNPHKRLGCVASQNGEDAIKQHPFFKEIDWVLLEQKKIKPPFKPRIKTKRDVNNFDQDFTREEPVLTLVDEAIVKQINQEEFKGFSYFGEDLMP
In test [3] the target is Mitogen-activated protein kinase 14 (Homo sapiens, UniProt Q16539). Description: Inhibition of p38 alpha Lys2 labeling site in human A-375 cells at 0.5 uM by KiNativ Profiling analysis relative to control. Type of test: cell-based.
Mitogen-activated protein kinase 14, sequence (Q16539 whole entry, the tested form may be a part): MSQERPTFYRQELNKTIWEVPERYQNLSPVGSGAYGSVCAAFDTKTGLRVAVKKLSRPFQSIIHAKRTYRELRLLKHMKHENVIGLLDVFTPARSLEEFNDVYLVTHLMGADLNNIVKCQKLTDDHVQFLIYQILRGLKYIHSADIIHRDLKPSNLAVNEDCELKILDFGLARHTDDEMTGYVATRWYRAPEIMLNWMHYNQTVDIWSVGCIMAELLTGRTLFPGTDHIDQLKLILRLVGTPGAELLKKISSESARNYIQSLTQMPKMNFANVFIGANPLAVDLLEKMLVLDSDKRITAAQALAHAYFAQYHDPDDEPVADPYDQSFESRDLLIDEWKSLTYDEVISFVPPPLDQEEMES
In test [4] the target is Ribosomal protein S6 kinase alpha-1 (Homo sapiens) (UniProt Q15418). Put plainly: Inhibition of RSK1 Protein Kinase Domain in human A-375 cells at 5 uM by KiNativ Profiling analysis relative to control. Type of test: cell-based.
Ribosomal protein S6 kinase alpha-1 (Homo sapiens), sequence (Q15418 whole entry, the tested form may be a part): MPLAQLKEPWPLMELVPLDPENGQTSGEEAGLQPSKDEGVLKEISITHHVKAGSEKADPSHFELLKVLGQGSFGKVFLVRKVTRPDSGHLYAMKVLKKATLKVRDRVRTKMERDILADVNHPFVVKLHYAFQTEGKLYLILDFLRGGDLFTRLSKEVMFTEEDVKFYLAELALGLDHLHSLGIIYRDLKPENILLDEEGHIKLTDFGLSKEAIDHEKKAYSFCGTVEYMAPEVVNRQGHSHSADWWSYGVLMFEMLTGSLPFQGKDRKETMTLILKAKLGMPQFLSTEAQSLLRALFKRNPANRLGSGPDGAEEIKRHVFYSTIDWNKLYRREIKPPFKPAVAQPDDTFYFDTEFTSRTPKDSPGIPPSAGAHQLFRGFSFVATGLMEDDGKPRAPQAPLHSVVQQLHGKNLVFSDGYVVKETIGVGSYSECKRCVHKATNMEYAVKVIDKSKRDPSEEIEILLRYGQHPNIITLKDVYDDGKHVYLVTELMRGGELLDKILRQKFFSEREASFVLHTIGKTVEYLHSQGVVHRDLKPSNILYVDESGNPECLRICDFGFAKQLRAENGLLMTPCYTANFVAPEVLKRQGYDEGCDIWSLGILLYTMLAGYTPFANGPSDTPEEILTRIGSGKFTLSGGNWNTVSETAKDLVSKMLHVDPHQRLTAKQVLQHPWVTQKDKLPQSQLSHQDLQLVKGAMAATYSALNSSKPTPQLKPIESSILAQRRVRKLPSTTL
The target in test [5] is Mitogen-activated protein kinase 3 (Homo sapiens) (UniProt P27361). Put plainly: Inhibition of ERK1 (unknown origin) at 10 uM by Ambit Kinomescan binding assay.
Mitogen-activated protein kinase 3 (Homo sapiens), sequence (P27361 whole entry): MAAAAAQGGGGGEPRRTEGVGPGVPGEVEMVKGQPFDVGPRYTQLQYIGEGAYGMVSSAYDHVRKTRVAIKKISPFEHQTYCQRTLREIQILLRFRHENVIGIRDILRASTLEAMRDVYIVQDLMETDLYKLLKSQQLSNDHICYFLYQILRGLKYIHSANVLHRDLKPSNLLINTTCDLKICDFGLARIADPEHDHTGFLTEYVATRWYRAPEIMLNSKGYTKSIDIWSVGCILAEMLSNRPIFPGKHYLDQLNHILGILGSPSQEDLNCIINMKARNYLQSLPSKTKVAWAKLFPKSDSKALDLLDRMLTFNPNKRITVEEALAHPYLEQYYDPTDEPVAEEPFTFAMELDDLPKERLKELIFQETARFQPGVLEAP
Test [6] deals with T2, Mitogen-activated protein kinase kinase kinase kinase 2 (Homo sapiens) (UniProt Q12851).
T2 sequence (whole entry): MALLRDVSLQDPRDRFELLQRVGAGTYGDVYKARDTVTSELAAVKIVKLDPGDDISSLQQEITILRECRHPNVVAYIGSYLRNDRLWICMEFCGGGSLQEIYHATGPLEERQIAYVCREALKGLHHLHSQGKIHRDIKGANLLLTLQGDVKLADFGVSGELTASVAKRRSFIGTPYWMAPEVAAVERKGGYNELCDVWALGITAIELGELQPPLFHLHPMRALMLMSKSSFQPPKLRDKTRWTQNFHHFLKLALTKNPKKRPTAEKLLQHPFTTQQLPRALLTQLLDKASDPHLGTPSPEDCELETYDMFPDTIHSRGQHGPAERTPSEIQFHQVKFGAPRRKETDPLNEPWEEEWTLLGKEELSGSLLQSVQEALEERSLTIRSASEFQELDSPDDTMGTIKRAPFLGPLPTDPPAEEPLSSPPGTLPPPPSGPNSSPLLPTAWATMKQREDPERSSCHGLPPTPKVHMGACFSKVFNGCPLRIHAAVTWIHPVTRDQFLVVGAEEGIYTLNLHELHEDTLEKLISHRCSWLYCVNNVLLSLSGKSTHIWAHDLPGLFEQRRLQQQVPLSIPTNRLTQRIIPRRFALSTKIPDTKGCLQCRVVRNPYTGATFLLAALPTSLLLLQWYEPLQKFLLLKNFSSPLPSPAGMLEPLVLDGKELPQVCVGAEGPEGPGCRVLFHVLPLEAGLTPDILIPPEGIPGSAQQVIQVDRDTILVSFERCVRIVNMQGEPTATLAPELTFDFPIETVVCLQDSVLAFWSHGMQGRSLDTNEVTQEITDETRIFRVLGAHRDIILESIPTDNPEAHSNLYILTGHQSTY
Description: Inhibition of MAP4K2 (GCK) Lys2 labeling site in human A-375 cells at 0.5 uM by KiNativ Profiling analysis relative to control. Type of test: cell-based.

Test [7] concerns the target T3, NUAK family SNF1-like kinase 1 (Homo sapiens) (UniProt O60285).
T3 sequence (whole entry): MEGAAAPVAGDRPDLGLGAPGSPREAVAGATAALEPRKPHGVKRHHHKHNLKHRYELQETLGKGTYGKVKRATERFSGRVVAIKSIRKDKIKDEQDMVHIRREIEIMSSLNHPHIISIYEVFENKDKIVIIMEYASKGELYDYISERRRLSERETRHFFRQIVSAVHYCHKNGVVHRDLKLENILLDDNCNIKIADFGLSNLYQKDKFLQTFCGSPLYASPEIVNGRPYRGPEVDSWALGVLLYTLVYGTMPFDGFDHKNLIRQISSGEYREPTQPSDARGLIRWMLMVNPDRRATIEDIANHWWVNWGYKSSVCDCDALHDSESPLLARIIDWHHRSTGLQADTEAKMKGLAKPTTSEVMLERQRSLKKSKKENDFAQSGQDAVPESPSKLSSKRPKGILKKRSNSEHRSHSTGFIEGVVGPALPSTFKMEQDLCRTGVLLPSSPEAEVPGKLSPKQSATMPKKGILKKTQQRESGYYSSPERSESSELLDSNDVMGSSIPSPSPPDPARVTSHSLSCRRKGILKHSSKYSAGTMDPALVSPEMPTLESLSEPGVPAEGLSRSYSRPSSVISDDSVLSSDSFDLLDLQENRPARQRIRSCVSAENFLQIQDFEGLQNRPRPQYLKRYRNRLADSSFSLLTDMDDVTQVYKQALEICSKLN
Description: Inhibition of ARK5 (unknown origin) at 10 uM by Ambit Kinomescan binding assay.

The source made the active and inactive calls. No cut-off for these calls is given here.

In the case of `CNc1cc(Oc2cc(C(=O)Nc3cc(N4CCN(C)CC4)cc(C(F)(F)F)c3)ccc2C)ncn1`, the inhibition in test [1] is -6.7%.
In test [2], `CCN1CCN(Cc2ccc(NC(=O)c3ccc(C)c(/C=C/c4cnc5[nH]ccc5c4OC)c3)cc2C(F)(F)F)CC1` yielded a residual activity of 62%. Moreover, in test [3], the inhibition came to 59.5%.
With `CCN1CCN(Cc2ccc(NC(=O)c3ccc(C)c(Oc4ccnc5[nH]ccc45)c3)cc2C(F)(F)F)CC1`, the inhibition in test [4] amounted to 5.8%; in test [6], 98%. The inhibition entry in test [5] and in test [7] was “inactive” in each case.

The inhibition is the change of the read-out against control, counted positive when it falls. The term residual activity denotes the share of the control activity or signal that is left under treatment. High values mean much activity left, low ones little activity left.
